# Earlier results in patent publication US20110250279A1, “CONTROLLED-RELEASE COMPOSITION FOR PRODUCING SUSTAINED-RELEASE PREPARATION CONTAINING UDENAFIL” (Dong-A Pharm. Co., Ltd., priority 2008, published 2011).
# Tests used:
# [1] = biological target: PDE-5 (Homo sapiens, UniProt O76074)
# [2] = phase 1 clinical tests (Koreans and Caucasians)
# [3] = not given; remark: listed apart in the source
smiles,measurement,setting,value
"CCCOc1ccc(S(=O)(=O)NCCC2CCCN2C)cc1-c1nc2c(CCC)nn(C)c2c(=O)[nH]1 (stereo not drawn) [Udenafil, 3-(1-methyl-7-oxo-3-propyl-4,7-dihydro-1H-pyrazolo[4,3-d]pyrimidin-5-yl)-N-[2-(1-methylpyrrolidin-2-yl)ethyl]-4-propoxybenzenesulfonamide]",inhibitory activity for PDE-5,[1],strong inhibitory activity
same,selectivity for PDE-5,[1],high selectivity
same,volume of distribution in vivo,,large volume of distribution
same,absorption,in vivo,rapidly absorbed
same,bioavailability,in vivo,high bioavailability
same,half life relative to sildenafil or vardenafil,in vivo,about three times longer
same,serious abnormal reactions by drugs,[2],did not generate serious abnormal reactions
same,drug discontinuation rate,[3]; during the clinical tests,lowest
same,extent and frequency of side effects,"[3]; phase 2 and 3 clinical tests, versus conventional oral therapeutic agents for erectile dysfunction",lower
